Test results reported in patent US10973861B2, “Compositions and methods” (priority 2013, dated 2021).

Test system: C. difficile
Experiment: Mouse model of C. difficile infection, bacterial compositions given by oral gavage on day −1 (Example 1)
Format: in vivo, mice
Details: positive control, oral gavage on days −1 to 4

Structure (SMILES): CN[C@H](CC(C)C)C(=O)N[C@H]1C(=O)N[C@@H](CC(N)=O)C(=O)N[C@H]2C(=O)N[C@H]3C(=O)N[C@H](C(=O)N[C@H](C(=O)O)c4cc(O)cc(O)c4-c4cc3ccc4O)[C@H](O)c3ccc(c(Cl)c3)Oc3cc2cc(c3O[C@@H]2O[C@H](CO)[C@@H](O)[C@H](O)[C@H]2O[C@H]2C[C@](C)(N)[C@H](O)[C@H](C)O2)Oc2ccc(cc2Cl)[C@H]1O [Vancomycin]
- weight loss, clinical signs of disease, and C. difficile shedding (in words): protects against these outcomes
